Values joined by “and” are separate entries in the source; they are usually repeats but may differ in a detail not shown here. Identical values can stand only once.
System: BDF1 mice, Adenocarcinoma 755 s.c., tumor weight T/C
Experiment: NCI In Vivo Anticancer Drug Screen. Data for tumor model Adenocarcinoma 755 (subcutaneous) in B6D2F1 (BDF1) mice
Details: endpoint: mean tumor weight, schedule: Q01DX011 (ip), higher = larger tumour
Method in brief: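 Tumor-bearing mice receive test compound while controls get vehicle alone. Antitumor effect is scored from survival or tumor dimensions as a T/C quotient.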

[1] = dose: 12.0 mg/kg/injection, vehicle: carboxymethylcellulose (CMC)
[2] = dose: 25.0 mg/kg/injection, vehicle: carboxymethylcellulose (CMC)
[3] = dose: 30.0 mg/kg/injection, vehicle: carboxymethylcellulose (CMC)
[4] = dose: 37.5 mg/kg/injection, vehicle: methylcellulose (MC)
[5] = dose: 75.0 mg/kg/injection, vehicle: methylcellulose (MC)
[6] = dose: 150.0 mg/kg/injection, vehicle: methylcellulose (MC)
[7] = dose: 2.0 mg/kg/injection, vehicle: carboxymethylcellulose (CMC)
[8] = dose: 4.0 mg/kg/injection, vehicle: carboxymethylcellulose (CMC)
[9] = dose: 8.0 mg/kg/injection, vehicle: carboxymethylcellulose (CMC)
[10] = dose: 50.0 mg/kg/injection, vehicle: carboxymethylcellulose (CMC)
[11] = dose: 30.0 mg/kg/injection, vehicle: saline
[12] = dose: 60.0 mg/kg/injection, vehicle: saline
[13] = dose: 120.0 mg/kg/injection, vehicle: saline

CC(=O)Nc1c(Cl)c(Cl)c2c(c1Cl)Cc1cc(Br)ccc1-2
T/C [1]: 30 % of control
T/C [2]: 41 % of control

CCOCCNS(=O)(=O)c1ncnc2nc[nH]c12
T/C (dose: 11.2 mg/kg/injection, vehicle: carboxymethylcellulose (CMC)): 53 % of control
T/C (dose: 22.5 mg/kg/injection, vehicle: carboxymethylcellulose (CMC)): 9 % of control
T/C [3]: 2 % of control
T/C (dose: 45.0 mg/kg/injection, vehicle: carboxymethylcellulose (CMC)): 3 % of control
T/C (dose: 60.0 mg/kg/injection, vehicle: carboxymethylcellulose (CMC)): 1 % of control

CCCNc1ncnc2c1cnn2C1CCCCO1 (configuration not stated)
T/C (dose: 3.12 mg/kg/injection, vehicle: methylcellulose (MC)): 67 % of control
T/C (dose: 6.25 mg/kg/injection, vehicle: methylcellulose (MC)): 54 % of control
T/C (dose: 12.5 mg/kg/injection, vehicle: methylcellulose (MC)): 44 % of control

CC(C)N(C(C)C)C(C)CCNc1c2ccccc2nc2cc(Cl)ccc12 (configuration not stated)
T/C (dose: 3.0 mg/kg/injection, vehicle: methylcellulose (MC)): 64 % of control
T/C (dose: 6.0 mg/kg/injection, vehicle: methylcellulose (MC)): 79 % of control
T/C (dose: 12.0 mg/kg/injection, vehicle: methylcellulose (MC)): 72 % of control

CCC(C)Cn1cnc2c(=O)[nH]c(N)nc21 (configuration not stated)
T/C [4]: 75 % of control
T/C [5]: 49 % of control
T/C [6]: 67 % of control

COc1cc(-c2ccc(N=Nc3ccc4c(S(=O)(=O)O)cc(S(=O)(=O)O)c(N)c4c3O)c(OC)c2)ccc1N=Nc1ccc2c(S(=O)(=O)O)cc(S(=O)(=O)O)c(N)c2c1O
T/C (dose: 1.0 mg/kg/injection, vehicle: carboxymethylcellulose (CMC)): 74 % of control
T/C [7]: 38 % of control
T/C [8]: 44 % of control
T/C [9]: 31 % of control and 43 % of control

Nc1ccc2ccccc2c1N=Nc1ccccc1
T/C [2]: 68 % of control
T/C [10]: 27 % of control
T/C (dose: 100.0 mg/kg/injection, vehicle: carboxymethylcellulose (CMC)): 34 % of control
T/C (dose: 200.0 mg/kg/injection, vehicle: carboxymethylcellulose (CMC)): 25 % of control

Nc1nc(I)c2ncn(C3OC(CO)C(O)C3O)c2n1 (configuration not stated)
T/C [11]: 113 % of control
T/C [12]: 121 % of control
T/C [13]: 82 % of control
T/C (dose: 240.0 mg/kg/injection, vehicle: saline): 62 % of control
T/C (dose: 400.0 mg/kg/injection, vehicle: saline): 9 % of control
T/C (dose: 600.0 mg/kg/injection, vehicle: saline): 47 % of control

Ic1ncnc2c1ncn2C1CCCS1 (configuration not stated)
T/C [5]: 150 % of control
T/C (dose: 225.0 mg/kg/injection, vehicle: methylcellulose (MC)): 95 % of control

Cc1ccc(CNc2ncnc3c2cnn3C2CCCCO2)cc1 (configuration not stated)
T/C (dose: 18.7 mg/kg/injection, vehicle: methylcellulose (MC)): 109 % of control
T/C [4]: 35 % of control
T/C [5]: 88 % of control
T/C [6]: 44 % of control

Cc1ccccc1Nc1cc(=S)nc(N)[nH]1
T/C (dose: 15.0 mg/kg/injection, vehicle: methylcellulose (MC)): 122 % of control
T/C (dose: 31.0 mg/kg/injection, vehicle: methylcellulose (MC)): 91 % of control
T/C (dose: 62.0 mg/kg/injection, vehicle: methylcellulose (MC)): 92 % of control
T/C (dose: 250.0 mg/kg/injection, vehicle: methylcellulose (MC)): 84 % of control

CN(CC#N)/N=N/c1nc[nH]c1C(N)=O
T/C (dose: 37.0 mg/kg/injection, vehicle: carboxymethylcellulose (CMC)): 108 % of control
T/C (dose: 75.0 mg/kg/injection, vehicle: carboxymethylcellulose (CMC)): 73 % of control

Nc1nc(N)c(N=O)c(Nc2ccc(Br)cc2)n1
T/C (dose: 5.0 mg/kg/injection, vehicle: methylcellulose (MC)): 71 % of control
T/C (dose: 10.0 mg/kg/injection, vehicle: methylcellulose (MC)): 32 % of control
T/C (dose: 20.0 mg/kg/injection, vehicle: methylcellulose (MC)): 20 % of control and 31 % of control
T/C (dose: 22.0 mg/kg/injection, vehicle: methylcellulose (MC)): 44 % of control
T/C (dose: 40.0 mg/kg/injection, vehicle: methylcellulose (MC)): 16 % of control
T/C (dose: 44.0 mg/kg/injection, vehicle: methylcellulose (MC)): 21 % of control
T/C (dose: 88.0 mg/kg/injection, vehicle: methylcellulose (MC)): 20 % of control and 30 % of control

Cn1c(=O)c2c(nc(N/N=C/c3ccccc3Br)n2C)n(C)c1=O
T/C [3]: 96 % of control
T/C (dose: 120.0 mg/kg/injection, vehicle: carboxymethylcellulose (CMC)): 101 % of control
T/C (dose: 240.0 mg/kg/injection, vehicle: carboxymethylcellulose (CMC)): 89 % of control

CS(=O)(=O)OCCCCCCCCCOS(C)(=O)=O
T/C [7]: 35 % of control
T/C [8]: 49 % of control
T/C [9]: 54 % of control
T/C (dose: 16.0 mg/kg/injection, vehicle: carboxymethylcellulose (CMC)): 26 % of control
T/C (dose: 28.0 mg/kg/injection, vehicle: carboxymethylcellulose (CMC)): 7 % of control

O=S1(=O)OCc2ccccc21
T/C (dose: 27.5 mg/kg/injection, vehicle: carboxymethylcellulose (CMC)): 113 % of control
T/C (dose: 27.5 mg/kg/injection, vehicle: methylcellulose (MC)): 118 % of control
T/C (dose: 55.0 mg/kg/injection, vehicle: carboxymethylcellulose (CMC)): 68 % of control
T/C (dose: 55.0 mg/kg/injection, vehicle: methylcellulose (MC)): 98 % of control
T/C (dose: 110.0 mg/kg/injection, vehicle: methylcellulose (MC)): 17 % of control

OC1CC([CH2][Hg][Cl])OC([CH2][Hg][Cl])C1 (configuration not stated)
T/C (dose: 6.0 mg/kg/injection, vehicle: carboxymethylcellulose (CMC)): 95 % of control
T/C [1]: 109 % of control
T/C [2]: 28 % of control and 36 % of control
T/C [10]: 92 % of control

CCOC(=O)/C(C)=N\Nc1cc(Cl)nc(N)n1
T/C (dose: 112.0 mg/kg/injection, vehicle: methylcellulose (MC)): 200 % of control

CN1Cc2c(ccc3c2OCO3)[C@@H]2[C@H](O)Cc3cc4c(cc3[C@@H]21)OCO4
T/C (dose: 150.0 mg/kg/injection, vehicle: carboxymethylcellulose (CMC)): 167 % of control
T/C (dose: 300.0 mg/kg/injection, vehicle: carboxymethylcellulose (CMC)): 51 % of control

Cn1c(N)nc2c(ncn2C2OC(CO)C(O)C2O)c1=O (configuration not stated)
T/C [11]: 101 % of control
T/C [12]: 94 % of control
T/C [13]: 116 % of control

CC1CN1P1(N2CC2C)=NP(N2CC2C)(N2CC2C)=NP(N2CC2C)(N2CC2C)=N1 (configuration not stated)
T/C (dose: 3.0 mg/kg/injection, vehicle: saline): 81 % of control
T/C (dose: 5.0 mg/kg/injection, vehicle: saline): 53 % of control
T/C (dose: 9.0 mg/kg/injection, vehicle: saline): 52 % of control
T/C (dose: 18.0 mg/kg/injection, vehicle: saline): 20 % of control and 35 % of control
T/C (dose: 36.0 mg/kg/injection, vehicle: saline): 9 % of control
T/C (dose: 75.0 mg/kg/injection, vehicle: saline): 24 % of control

Cc1ccc(CSc2ncnc3nc[nH]c23)c2ccccc12
T/C [5]: 54 % of control
T/C [6]: 33 % of control
T/C (dose: 300.0 mg/kg/injection, vehicle: methylcellulose (MC)): 38 % of control
T/C (dose: 600.0 mg/kg/injection, vehicle: methylcellulose (MC)): 11 % of control

— PubChem BioAssay AID180 (DTP/NCI, 2004)
